Target: T1, Human BCL-XL protein (N-terminal HiBiT tagged BCL-XL expressed in HT1080 cells) (Homo sapiens, UniProt Q07817)
T1 construct: expressed in transfected cells; host or cells: HT-1080 (ATCC CCL-121), stably transduced with lentivirus pLV-UBC-N-HiBiT-BCL-XL-PGK-puro and selected with puromycin
Assay: HiBiT Based Degradation Assay
Type: cell-based
Conditions: 24 hours incubation; for DC50: BCL-XL degradation, HT1080 cells expressing N-HiBiT-BCL-XL, normalized with DMSO control, geometric mean for multiple data points, read-out: EC50 (24 h); for Ymin (24 h): bottom of BCL-XL degradation curve (remaining HiBiT-BCL-XL signal vs DMSO control), HT1080 cells
How it was run: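 BCL-XL degradation was read as Nano-Glo HiBiT lytic luminescence relative to DMSO after a 24 h compound treatment of HT1080 cells carrying stably integrated N-HiBiT-BCL-XL. EC50 values come from four-parameter logistic curves, with the hook-curve minimum fixed as bottom, and are geometric means where tested repeatedly.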

T1 sequence (Q07817 whole entry): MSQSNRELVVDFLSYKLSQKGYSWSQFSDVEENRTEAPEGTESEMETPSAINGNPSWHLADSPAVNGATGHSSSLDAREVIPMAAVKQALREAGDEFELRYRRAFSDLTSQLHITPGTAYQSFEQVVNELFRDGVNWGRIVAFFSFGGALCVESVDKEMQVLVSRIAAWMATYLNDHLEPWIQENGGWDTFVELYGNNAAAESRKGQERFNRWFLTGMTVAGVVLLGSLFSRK

Cc1cc(OC[C@H]2C[C@H]2CC2CCN(CC(=O)Nc3ccc4c(C5CCC(=O)NC5=O)nn(C)c4c3)CC2)ccc1-c1ccc(N2CCc3cccc(C(=O)Nc4nc5ccccc5s4)c3C2)nc1C(=O)O (single isomer, unassigned) [Compound 1002b]
DC50: < 10 nM | Ymin (24 h): B (30% ≤ Ymin < 50%)

C[C@H]1C[C@@H](CCCOc2cccc(-c3ccc(N4CCc5cccc(C(=O)Nc6nc7ccccc7s6)c5C4)nc3C(=O)O)c2C(F)(F)F)CCN1CC(=O)Nc1ccc2c(C3CCC(=O)NC3=O)nn(C)c2c1 (stereo partly shown) [Compound 215b]
DC50: 10 to 100 nM | Ymin (24 h): B (30% ≤ Ymin < 50%)

Cc1cc(OC2CC3(CCN(CC(=O)Nc4ccc5c(C6CCC(=O)NC6=O)nn(C)c5n4)CC3)C2)ccc1-c1ccc(N2CCc3cccc(C(=O)Nc4nc5ccccc5s4)c3C2)nc1C(=O)O (stereo not shown) [Compound 195]
DC50: < 10 nM | Ymin (24 h): B (30% ≤ Ymin < 50%)

Cc1c(OC[C@@H]2C[C@@H]2CC2CCN(CC(=O)Nc3ccc4c(C5CCC(=O)NC5=O)nn(C)c4c3)CC2)cccc1-c1ccc(N2CCc3cccc(C(=O)Nc4nc5ccccc5s4)c3C2)nc1C(=O)O (single isomer, unassigned) [Compound 1004c]
DC50: < 10 nM | Ymin (24 h): B (30% ≤ Ymin < 50%)

Cc1cc(N(C)CCCC2CCN(CC(=O)Nc3ccc4c(C5CCC(=O)NC5=O)nn(C)c4c3)CC2)ccc1-c1ccc(N2CCc3cccc(C(=O)Nc4nc5ccccc5s4)c3C2)nc1C(=O)O (stereo not shown) [Compound 222, 6-(8-(benzo[d]thiazol-2-ylcarbamoyl)-3,4-dihydroisoquinolin-2(1H)-yl)-3-(4-((3-(1-(2-((3-(2,6-dioxopiperidin-3-yl)-1-methyl-1H-indazol-6-yl)amino)-2-oxoethyl)piperidin-4-yl)propyl)(methyl)amino)-2-methylphenyl)picolinic acid]
DC50: < 10 nM | Ymin (24 h): A (Ymin < 30%)

Cc1c(OCC2CC3(CCN(CCCc4ccc5c(C6CCC(=O)NC6=O)nn(C)c5c4)CC3)C2)cccc1-c1ccc(N2CCc3cccc(C(=O)Nc4nc5ccccc5s4)c3C2)nc1C(=O)O (stereo not shown) [Compound 149, 6-[8-(1,3-benzothiazol-2-ylcarbamoyl)-3,4-dihydro-1H-isoquinolin-2-yl]-3-[3-[[7-[3-[3-(2,6-dioxo-3-piperidyl)-1-methyl-indazol-6-yl]propyl]-7-azaspiro[3.5]nonan-2-yl]methoxy]-2-methyl-phenyl]pyridine-2-carboxylic acid]
DC50: < 10 nM | Ymin (24 h): A (Ymin < 30%)

Cn1nc(C2CCC(=O)NC2=O)c2ccc(NC(=O)CN3CCC4(CC3)CC(COc3ccc(-c5ccc(N6CCc7cccc(C(=O)Nc8nc9ccccc9s8)c7C6)nc5C(=O)O)c(C(F)(F)F)c3)C4)nc21 (stereo not shown) [Compound 148]
DC50: 10 to 100 nM | Ymin (24 h): B (30% ≤ Ymin < 50%)

Cc1cc(O[C@H](C)CCC2CCN(CC(=O)Nc3ccc4c(C5CCC(=O)NC5=O)nn(C)c4n3)CC2)ccc1-c1ccc(N2CCc3cccc(C(=O)Nc4nc5ccccc5s4)c3C2)nc1C(=O)O (single isomer, unassigned) [Compound 225b]
DC50: 10 to 100 nM | Ymin (24 h): B (30% ≤ Ymin < 50%)

Cc1c(OC[C@@H]2C[C@@H]2C2CCN(CC(=O)Nc3ccc4c(C5CCC(=O)NC5=O)nn(C)c4c3)CC2)cccc1-c1ccc(N2CCc3cccc(C(=O)Nc4nc5ccccc5s4)c3C2)nc1C(=O)O (single isomer, unassigned) [Compound 1001d]
DC50: 10 to 100 nM | Ymin (24 h): B (30% ≤ Ymin < 50%)

Cn1nc(C2CCC(=O)NC2=O)c2ccc(NC(=O)CN3CCC(CCCOc4cccc(-c5ccc(N6CCc7cccc(C(=O)Nc8nc9ccccc9s8)c7C6)nc5C(=O)O)c4C(F)(F)F)CC3)nc21 (stereo not shown) [Compound 145]
DC50: 10 to 100 nM | Ymin (24 h): C (50% ≤ Ymin < 70%)

Cc1cc(NCCCC2CCN(CC(=O)Nc3ccc4c(C5CCC(=O)NC5=O)nn(C)c4c3)CC2)ccc1-c1ccc(N2CCc3cccc(C(=O)Nc4nc5ccccc5s4)c3C2)nc1C(=O)O (stereo not shown) [Compound 218]
DC50: < 10 nM | Ymin (24 h): A (Ymin < 30%)

— patent publication US20260216170A1, “TETRAHYDROISOQUINOLINE HETEROBIFUNCTIONAL BCL-XL DEGRADERS” (Treeline Biosciences, Inc., priority 2023, published 2026)
